{"source": "PubChem BioAssay AID330", "about": "(DTP/NCI, 2004)", "tested_on": "P388 leukemia ip, CD2F1 mice, survival T/C", "assay": "NCI In Vivo Anticancer Drug Screen. Data for tumor model P388 Leukemia (intraperitoneal) in CD2F1 (CDF1) mice", "conditions": "endpoint: median survival time, higher = longer survival", "how_it_was_run": "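Mice carrying the transplanted tumor received test compound or vehicle. Survival was recorded in each group, and the value is the treated-group measurement divided by that of the vehicle-treated control group.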", "key": {"[1]": {"conditions": "dose: 50.0 mg/kg/injection, schedule: Q01DX005 (ip), vehicle: Klucel (hydroxypropylcellulose) (HPC)"}, "[2]": {"conditions": "dose: 100.0 mg/kg/injection, schedule: Q01DX005 (ip), vehicle: Klucel (hydroxypropylcellulose) (HPC)"}, "[3]": {"conditions": "dose: 200.0 mg/kg/injection, schedule: Q01DX005 (ip), vehicle: Klucel (hydroxypropylcellulose) (HPC)"}, "[4]": {"conditions": "dose: 50.0 mg/kg/injection, schedule: Q01DX009 (ip), vehicle: saline with Tween-80"}, "[5]": {"conditions": "dose: 100.0 mg/kg/injection, schedule: Q01DX009 (ip), vehicle: saline with Tween-80"}, "[6]": {"conditions": "dose: 200.0 mg/kg/injection, schedule: Q01DX009 (ip), vehicle: saline with Tween-80"}, "[7]": {"conditions": "dose: 400.0 mg/kg/injection, schedule: Q01DX009 (ip), vehicle: saline with Tween-80"}}, "note": "Values joined by “and” are separate entries in the source; they are usually repeats but may differ in a detail not shown here. Identical values can stand only once. Toxic doses and inconclusive results are not listed.", "data": [{"smiles": "CC1CCC2CCCCN2CO1", "note": "(stereo not given)", "values": [{"measurement": "T/C", "setting": "dose: 25.0 mg/kg/injection, schedule: Q01DX005 (ip), vehicle: Klucel (hydroxypropylcellulose) (HPC)", "result": "105 % of control"}, {"measurement": "T/C", "setting": "[1]", "result": "101 % of control and 122 % of control and 96 % of control"}, {"measurement": "T/C", "setting": "[2]", "result": "101 % of control and 109 % of control and 112 % of control"}, {"measurement": "T/C", "setting": "[3]", "result": "104 % of control and 114 % of control and 118 % of control"}]}, {"smiles": "S=C1SCN(C2CCCCCCCCCCC2)CN1C1CCCCCCCCCCC1", "values": [{"measurement": "T/C", "setting": "[4]", "result": "94 % of control"}, {"measurement": "T/C", "setting": "[5]", "result": "93 % of control"}, {"measurement": "T/C", "setting": "[6]", "result": "97 % of control"}, {"measurement": "T/C", "setting": "[7]", "result": "101 % of control"}]}, {"smiles": "Cc1nc2c([N+](=O)[O-])c(NCc3ccccc3)c([N+](=O)[O-])cc2[nH]1", "values": [{"measurement": "T/C", "setting": "dose: 100.0 mg/kg/injection, schedule: Q04DX003 (ip), vehicle: saline with Tween-80", "result": "97 % of control"}, {"measurement": "T/C", "setting": "dose: 200.0 mg/kg/injection, schedule: Q04DX003 (ip), vehicle: saline with Tween-80", "result": "95 % of control"}, {"measurement": "T/C", "setting": "dose: 400.0 mg/kg/injection, schedule: Q04DX003 (ip), vehicle: saline with Tween-80", "result": "101 % of control"}]}, {"smiles": "CN(C)CCCC#N", "values": [{"measurement": "T/C", "setting": "dose: 25.0 mg/kg/injection, schedule: Q04DX003 (ip), vehicle: saline", "result": "100 % of control"}, {"measurement": "T/C", "setting": "dose: 50.0 mg/kg/injection, schedule: Q04DX003 (ip), vehicle: saline", "result": "100 % of control"}, {"measurement": "T/C", "setting": "dose: 100.0 mg/kg/injection, schedule: Q04DX003 (ip), vehicle: saline", "result": "100 % of control"}]}, {"smiles": "CC(C)(C)c1cc(I)c(O)c(CN)c1", "values": [{"measurement": "T/C", "setting": "dose: 25.0 mg/kg/injection, schedule: Q01DX009 (ip), vehicle: saline", "result": "123 % of control"}]}, {"smiles": "O=P(OCC(F)(F)F)(c1ccccc1)c1ccccc1", "values": [{"measurement": "T/C", "setting": "dose: 50.0 mg/kg/injection, schedule: Q01DX005 (ip), vehicle: saline with Tween-80", "result": "108 % of control"}, {"measurement": "T/C", "setting": "dose: 100.0 mg/kg/injection, schedule: Q01DX005 (ip), vehicle: saline with Tween-80", "result": "104 % of control"}, {"measurement": "T/C", "setting": "dose: 200.0 mg/kg/injection, schedule: Q01DX005 (ip), vehicle: saline with Tween-80", "result": "112 % of control"}]}, {"smiles": "COc1ccc(C23OCN(c4ccccc4)C2(c2ccc(OC)cc2)c2ccccc2N3C)cc1", "note": "(stereo not given)", "values": [{"measurement": "T/C", "setting": "dose: 60.0 mg/kg/injection, schedule: Q01DX005 (ip), vehicle: saline with Tween-80", "result": "103 % of control"}, {"measurement": "T/C", "setting": "dose: 120.0 mg/kg/injection, schedule: Q01DX005 (ip), vehicle: saline with Tween-80", "result": "100 % of control"}, {"measurement": "T/C", "setting": "dose: 240.0 mg/kg/injection, schedule: Q01DX005 (ip), vehicle: saline with Tween-80", "result": "94 % of control"}]}, {"smiles": "CCCCCCCCCCCCCCCCCCOC(=O)C(N)CCCCN", "note": "(stereo not given)", "values": [{"measurement": "T/C", "setting": "dose: 15.0 mg/kg/injection, schedule: Q01DX005 (ip), vehicle: saline", "result": "96 % of control"}, {"measurement": "T/C", "setting": "dose: 30.0 mg/kg/injection, schedule: Q01DX005 (ip), vehicle: saline", "result": "110 % of control"}, {"measurement": "T/C", "setting": "dose: 60.0 mg/kg/injection, schedule: Q01DX005 (ip), vehicle: saline", "result": "109 % of control and 111 % of control"}]}, {"smiles": "COc1ccc(OC)c(N2C(=O)C(Cl)=C(Cl)C2=O)c1", "values": [{"measurement": "T/C", "setting": "dose: 12.5 mg/kg/injection, schedule: Q01DX001 (ip), vehicle: saline with Tween-80", "result": "100 % of control"}, {"measurement": "T/C", "setting": "dose: 25.0 mg/kg/injection, schedule: Q01DX001 (ip), vehicle: saline with Tween-80", "result": "100 % of control"}, {"measurement": "T/C", "setting": "dose: 50.0 mg/kg/injection, schedule: Q01DX001 (ip), vehicle: saline with Tween-80", "result": "114 % of control"}]}, {"smiles": "Cc1c([N+](=O)[O-])oc2c1C(=O)N([N+](=O)[O-])CCC2", "values": [{"measurement": "T/C", "setting": "dose: 100.0 mg/kg/injection, schedule: Q04DX003 (ip), vehicle: Klucel (hydroxypropylcellulose) (HPC)", "result": "114 % of control"}]}, {"smiles": "Cc1cccn2c([N+](=O)[O-])cnc12", "values": [{"measurement": "T/C", "setting": "[4]", "result": "102 % of control"}, {"measurement": "T/C", "setting": "[5]", "result": "120 % of control"}, {"measurement": "T/C", "setting": "[6]", "result": "113 % of control"}]}, {"smiles": "C[C@@H]1CC(=O)C[C@H]2CCCCN21", "values": [{"measurement": "T/C", "setting": "dose: 12.5 mg/kg/injection, schedule: Q01DX005 (ip), vehicle: saline", "result": "102 % of control"}, {"measurement": "T/C", "setting": "dose: 25.0 mg/kg/injection, schedule: Q01DX005 (ip), vehicle: saline", "result": "103 % of control"}, {"measurement": "T/C", "setting": "dose: 50.0 mg/kg/injection, schedule: Q01DX005 (ip), vehicle: saline", "result": "105 % of control"}]}, {"smiles": "C=C1CC(C)(C)CN(Cc2ccc([N+](=O)[O-])cc2)C(C(=O)OC)=C1C(=O)OC", "values": [{"measurement": "T/C", "setting": "[1]", "result": "87 % of control"}, {"measurement": "T/C", "setting": "[2]", "result": "95 % of control"}, {"measurement": "T/C", "setting": "[3]", "result": "94 % of control"}]}, {"smiles": "CN(NC(=O)CCl)c1ccc([N+](=O)[O-])cc1[N+](=O)[O-]", "values": [{"measurement": "T/C", "setting": "[5]", "result": "118 % of control"}, {"measurement": "T/C", "setting": "[6]", "result": "108 % of control"}, {"measurement": "T/C", "setting": "[7]", "result": "94 % of control"}]}]}
